Data set [1] deals with Pseudomonas aeruginosa. As to the kind of experiment: Antibacterial activity against Pseudomonas aeruginosa ATCC 27853 assessed as inhibition of bacterial growth at 10 hrs by plate reader analysis. It is filed as functional.
Data set [2] concerns Staphylococcus aureus. As to the kind of experiment: Antibacterial activity against Staphylococcus aureus L100 assessed as inhibition of bacterial growth at 10 hrs by plate reader analysis. It is filed as functional.
Data set [3] relates to Micrococcus luteus. As to the kind of experiment: Antibacterial activity against Micrococcus luteus L108 assessed as inhibition of bacterial growth at 10 hrs by plate reader analysis. In kind it is functional.
The test system of data set [4] is Enterococcus faecium. As to the kind of experiment: Antibacterial activity against Enterococcus faecium L568 assessed as inhibition of bacterial growth at 10 hrs by plate reader analysis. In kind it is functional.
Data set [5] relates to Escherichia coli. As to the kind of experiment: Antibacterial activity against Escherichia coli L4242 harboring delta tolC mutant assessed as inhibition of bacterial growth at 10 hrs by plate reader analysis. In kind it is functional.
Data set [6] is described as follows: Cytotoxicity against human Caco-2 cells assessed as reduction in cell viability incubated for 24 hrs by alamar blue assay. In kind it is toxicity, cell-based. For orientation: The colour change of resazurin is a common sign of viable cells or microbes.
Data set [7] is described as follows: Cytotoxicity against HEK293 cells assessed as reduction in cell viability incubated for 24 hrs by alamar blue assay. It is filed as toxicity, cell-based. As to conditions: human.
For data set [8], the system named is Streptococcus pneumoniae. The experiment in a line: Antibacterial activity against Streptococcus pneumoniae L44 assessed as inhibition of bacterial growth at 10 hrs by plate reader analysis. It is filed as functional.

Converted amounts (≈) assume the structure as drawn.

The MIC is the lowest concentration found to suppress growth. By IC50 is commonly meant the point on the concentration scale where inhibition reaches its midpoint.

On to `COC(=O)c1cccc2nc3c([C@@H](SC[C@H](NC(C)=O)C(=O)O)[C@@H](CCCCC(C)C)C(=O)OC)cccc3nc12`, for which the MIC in data set [1] was found to be 428 µM (≈ 250 µg/mL); in data set [2], 43 µM (≈ 25.1 µg/mL); in data set [3], 68 µM (≈ 39.7 µg/mL); in data set [4], 428 µM (≈ 250 µg/mL); in data set [5], 291 µM (≈ 170 µg/mL); in data set [8], 12 µM (≈ 7 µg/mL). The IC50 at 24 h in data set [6] was 154 µM; in data set [7], more than 220 µM.

(Values after ChEMBL document CHEMBL5137010, “N-Acetyl-Cysteinylated Streptophenazines from Streptomyces” (J Nat Prod, 2022).)
